These results are taken from patent EP4506005A1, “JAK-INHIBITOR FOR THE TREATMENT OF TEN, SJS AND SJS/TEN OVERLAP” (Max-Planck-Gesellschaft zur Förderung der Wissenschaften …, priority 2023, dated 2025).

Structures are written as SMILES. “Also recorded” adds a separate entry of the source.

One data set has as its system primary keratinocytes. The data set can be described thus: Live-cell imaging co-culture assay of patient-derived keratinocytes with matched PBMCs.
For data set [1] the following is noted: cited from earlier work.
Another data set concerns mouse model of TEN. The data set can be described thus: Smac mimetic TEN mouse model.
For a further data set, the system named is DRESS. The note with it: earlier report; cited from earlier work.

Source text for primary keratinocytes: Concurrently, patient-matched PBMCs were isolated and activated using CD3/28. After five days, the keratinocytes were fluorescently labeled and co-cultured with activated or resting PBMCs. A fluorescent DNA-binding dye was introduced to identify cells with compromised membrane integrity, in order to visualize, track and quantify the cytotoxic action of activated PBMCs towards keratinocytes using live-cell imaging.
PBMCs were isolated using Ficol according to standard protocol. Cells were frozen in liquid nitrogen until further usage.
Patient PBMCs (200'000 / well / 200 µl) were stimulated in U-shape 96-well plates in the presence or absence of CD3/28 (Gibco Dynabeads, #11161D) at a ratio of 1:1, in X-VIVO 15 (Lonza, #881026) for 5 days at 37 °C / 5% CO2. On day 4 of PBMC stimulation, hair-follicle derived keratinocytes from the same patient were plated on Collagen-I coated 96-well plates at a density of 5'000 - 10000 / well (depending on the proliferation rate, patient specific). On day 5 of PBMC stimulation, keratinocytes were fluorescently labeled (Celltracker Red; Invitrogen #C34552) according to the manufacturer's recommendation. Activated or non-activated ("resting") PBMCs were then added to the keratinocytes at a ratio of 1:1, after magnetic removal of CD3/28 beads where necessary. Tofacitinib (CST, #14703) or control (DMSO) was added in the indicated concentration as well as Celltox Green (Promega, G8731, 1:8000 final dilution) to reach a final volume of 200 µl per well. Every 2 hours images were acquired using a live cell analysis system (Incucyte Sx3, Sartorius) for 72 hours at 37 °C / 5% CO2. Quantification of dead keratinocytes (Celltox Green+ / Celltracker Red+) was performed using the proprietary analysis software (Incucyte, Sartorius).

Take `C[C@@H]1CCN(C(=O)CC#N)C[C@@H]1N(C)c1ncnc2[nH]ccc12` [Tofacitinib]: the cell death result in the data set on primary keratinocytes (Tofacitinib in combination with resting (non-activated) PBMCs) is recorded as “no indications of increased cell death”. Moreover, the keratinocyte cytotoxicity result with primary keratinocytes (co-culture of primary keratinocytes with CD3/28 activated PBMCs from the same TEN patient, ratio 1:1, Tofacitinib 50 or 5 (nmol/nM), imaging every 2h for 72 hours, Celltox Green positive keratinocytes) was “reduced keratinocyte-directed cytotoxicity; also recorded: able to dampen the keratinocyte mediated cytotoxicity; also recorded: ameliorates T-cell mediated keratinocyte cytotoxicity; also recorded: dose-dependent inhibition of keratinocyte cytotoxicity”. Further, the keratinocyte cell death result with primary keratinocytes (keratinocytes exposed to Tofacitinib alone) is given as “did not induce keratinocyte cell death”. The “peak plasma concentrations achieved (time after administration)” value in data set [1] is 30 to 60 min. For the same molecule, the “clinical and histological disease severity” value in the data set with mouse model of TEN (oral administration) is “ameliorated clinical and histological disease severity”. Moreover, the “macroscopic disease severity (clinical assessment score: Nikolsky sign, edema, rubor)” value in the data set with mouse model of TEN (oral gavage twice daily, Tofacitinib 30 mg/kg or Baricitinib 10 mg/kg, day 1 and 3 after s.c. smac mimetic injection) is recorded as “markedly reduced macroscopic disease severity”. Moreover, in the data set on DRESS, the “therapeutic intervention in DRESS” value is on record as “successful”.
